Reference: US10435402B2, “Bicyclic compounds, compositions and medicinal applications thereof” (Advinus Therapeutics Limited, priority 2015, dated 2019)

Target: T1, GAL4-DBD/RORγ-LBD (Homo sapiens, UniProt P51449)
T1 construct: expressed in transfected cells; host or cells: HEK293T
Assay: RORγt transactivation reporter assay (GAL4-DBD/RORγ-LBD, luciferase read out)
Assay type: cell-based
Conditions: HEK293T cells, GAL4-UAS luciferase reporter, overnight (18-24 hours) incubation
Method: RORγt Transactivation Reporter Assay Protocol: The inhibition of RORγt activity in cells was evaluated using a GAL4-UAS reporter system in HEK293T cells employing a luciferase read out. RORγt ligand binding domain (LBD) was cloned into the pFN26A (BIND) vector (Promega #[…]) containing yeast GAL4-DBD to form a RORγt LBD-GAL4 DBD fusion construct. This vector also contained a Renilla Luciferase reporter expressed under a SV40 promoter which was used as a control for transfection efficiency. A transcriptional reporter expression construct pGL4.35 (Promega #[…]) was used to monitor RORγt LBD-GAL4 activity. This construct contained nine repeats of GAL4 binding site/upstream activating sequence (UAS) controlling expression of a firefly luciferase reporter Luc2P. When transfected together in cells, the RORγ-LBD-DBD fusion protein drives expression of the luciferase reporter. For the assay, HEK293T cells were plated in a flat bottom 96 well plate at a density of 25,000 cells/well/100 ul of DMEM high glucose medium (Sigma D5648) containing 10% FBS and antibiotic. Cells were incubated overnight at 37 C/5% CO2. The next day, medium from the wells was removed and replaced with 30 ul of OptiMEM® (Invitrogen #31985070). 100 ng each of pBIND RORγ LBD-DBD and pGL4.35 reporter plasmids was transfected in HEK293T cells using Lipofectamine 2000 (Invitrogen #11668-019) where 10 ul of transfection complex was added to the each well. Control transfections were performed with an empty pF[…] vector and pGL4.35 vector. The transfected cells were incubated for 5 hours at 37 C/5% CO2. After incubation, 40 ul of DMEM high glucose medium without FBS, with antibiotic was added to each well. A 10 mM stock solution of test compound prepared in 100% DMSO was first diluted in DMSO and then in DMEM medium without FBS to give the required final compound concentration. Concentration of DMSO in the test compound solution was 0.4%. 20 ul of diluted compound solution was added to each well. Cells were incubated overnight (18-24 hours) at 37 C/5% CO2. The next day, luciferase assay was performed using the Dual Glo® Luciferase Assay System (Promega #E2940). Briefly, medium was removed from the wells and replaced with 40 ul 1× Passive Lysis Buffer (Promega #E1941). Plate was incubated at room temperature on a plate shaker at 1000 rpm for 40 min. After incubation, plate was centrifuged at 1000 rpm for 2 min. 20 ul of the lysate was transferred from each well to that of solid white half area 96 well plate (Costar #3693). Dual Glo® Reagent was thawed to room temperature and 20 ul was added to each well containing lysate. Plate was centrifuged at 1000 rpm/2 min and incubated at room temperature on a plate shaker at 600 rpm/25 min. Firefly luciferase signal was measured on a Tecan Safire2. After measurement, 20 ul of Dual Glo® Stop Glo® Reagent was added to each well. Plate was centrifuged at 1000 rpm/2 min and incubated at room temperature on a plate shaker at 600 rpm/25 min. Renilla luciferase signal was measured on Tecan Safire 2. IC50 values for test compounds were calculated from the normalized luciferase signal data using GraphPad Prism software.

T1 sequence (P51449 269-508 limits assumed): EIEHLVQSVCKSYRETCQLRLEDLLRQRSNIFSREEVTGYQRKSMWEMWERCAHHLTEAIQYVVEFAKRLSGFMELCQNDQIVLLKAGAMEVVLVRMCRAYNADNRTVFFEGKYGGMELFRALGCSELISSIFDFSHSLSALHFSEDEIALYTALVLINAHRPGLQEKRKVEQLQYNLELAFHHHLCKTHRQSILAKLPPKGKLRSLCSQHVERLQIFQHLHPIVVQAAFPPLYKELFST
T1 sequence (P04386 1-147 partner limits assumed): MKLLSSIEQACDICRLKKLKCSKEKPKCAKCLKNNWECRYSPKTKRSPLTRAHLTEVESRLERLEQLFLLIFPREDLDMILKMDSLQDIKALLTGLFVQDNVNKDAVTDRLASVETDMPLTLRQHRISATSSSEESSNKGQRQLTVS

IC50 [µM]	Compound
> 5	O=C(O)c1ccc(-c2cc(C(=O)c3c(Cl)cccc3Cl)n3cc(C(=O)NCCO)ccc23)cc1 [Example D-7, 4-[3-(2,6-dichlorobenzoyl)-6-(2-hydroxyethylcarbamoyl)indolizin-1-yl]benzoic acid]
< 0.5	O=C(O)c1ccc(-c2cc(C(=O)c3c(Cl)cccc3C(F)(F)F)n3cccc(Cl)c23)c(F)c1 [Example A-59, 4-[8-chloro-3-[2-chloro-6-(trifluoromethyl)benzoyl]indolizin-1-yl]-3-fluoro-benzoic acid]
< 0.5	Cc1c(-c2ccc(C(=O)O)cc2F)c2ccccn2c1C(=O)c1c(Cl)cccc1C(F)(F)F [Example C-6, 4-[3-[2-chloro-6-(trifluoromethyl)benzoyl]-2-methyl-indolizin-1-yl]-3-fluoro-benzoic acid]
< 0.5	COC(=O)c1cc(F)c(-c2cc(C(=O)c3c(Cl)cccc3Cl)n3ccccc23)c(F)c1 [Example A-7, methyl 4-[3-(2,6-dichlorobenzoyl)indolizin-1-yl]-3,5-difluoro-benzoate]
< 0.5	CN(C)C(=O)c1ccc2c(-c3ccc(C(=O)O)cc3)cc(C(=O)c3c(Cl)cccc3Cl)n2c1 [Example D-2, 4-[3-(2,6-dichlorobenzoyl)-6-(dimethylcarbamoyl)indolizin-1-yl]benzoic acid]
< 0.5	O=C(c1c(Cl)cccc1C(F)(F)F)c1cc(C2=CCC(C(=O)O)CC2)c2ccccn12 (stereo not drawn) [Example A-65, 4-[3-[2-chloro-6-(trifluoromethyl)benzoyl]indolizin-1-yl]cyclohex-3-ene-1-carboxylic acid]
< 0.5	CCOC(=O)c1ccc(-c2cc(C(=O)c3c(Cl)cccc3C3CC3)n3ccccc23)c(F)c1 [Example A-30, ethyl 4-[3-(2-chloro-6-cyclopropyl-benzoyl)indolizin-1-yl]-3-fluoro-benzoate]
< 0.5	COC(=O)c1ccc(-c2cc(C(=O)c3c(C)cccc3Cl)n3ccccc23)c(F)c1 [Example A-13, methyl 4-[3-(2-chloro-6-methyl-benzoyl)indolizin-1-yl]-3-fluoro-benzoate]
< 0.5	Cc1cccc(Cl)c1C(=O)c1cc(-c2ccc(C(=O)O)cc2F)c2ccccn12 [Example A-15, 4-[3-(2-chloro-6-methyl-benzoyl)indolizin-1-yl]-3-fluoro-benzoic acid]
< 0.5	CCOC(=O)c1ccc(-c2cc(C(=O)c3c(F)cccc3Cl)n3ccccc23)cc1 [Example A-24, ethyl 4-[3-(2-chloro-6-fluoro-benzoyl)indolizin-1-yl]benzoate]
< 0.5	CCOC(=O)c1ccc(-c2cc(C(=O)c3c(Cl)ccc(F)c3Cl)n3ccccc23)cc1 [Example A-56, ethyl 4-[3-(2,6-dichloro-3-fluoro-benzoyl)indolizin-1-yl]benzoate]
< 0.5	O=C(O)c1ccc(-c2cc(C(=O)c3c(F)cccc3F)n3ccccc23)c(F)c1 [Example A-39, 4-[3-(2,6-difluorobenzoyl)indolizin-1-yl]-3-fluoro-benzoic acid]
< 0.5	COC1CN(C(=O)c2ccc3c(-c4ccc(C(=O)O)cc4)cc(C(=O)c4c(Cl)cccc4Cl)n3c2)C1 [Example D-14, 4-[3-(2,6-dichlorobenzoyl)-6-(3-methoxyazetidine-1-carbonyl)indolizin-1-yl]benzoic acid]
< 0.5	O=C(O)c1ccc(-c2c(F)c(C(=O)c3c(Cl)cccc3Cl)n3ccccc23)cc1 [Example B-2, 4-[3-(2,6-dichlorobenzoyl)-2-fluoro-indolizin-1-yl]benzoic acid]
< 0.5	COC(=O)c1ccc(-c2cc(C(=O)c3c(Cl)cccc3C(F)(F)F)n3ccccc23)c(F)c1 [Example A-11, methyl 4-[3-[2-chloro-6-(trifluoromethyl)benzoyl]indolizin-1-yl]-3-fluoro-benzoate]
< 0.5	Cc1c(-c2ccc(C(=O)O)cc2)c2ccccn2c1C(=O)c1c(Cl)ccnc1Cl [Example C-5, 4-[3-(2,4-dichloropyridine-3-carbonyl)-2-methyl-indolizin-1-yl]benzoic acid]
< 5	CCOC(=O)c1ccc(-c2c(C)c(C(=O)c3c(Cl)ccnc3Cl)n3ccccc23)cc1 [Example C-10, ethyl 4-[3-(2,4-dichloropyridine-3-carbonyl)-2-methyl-indolizin-1-yl]benzoate]
< 0.5	O=C(O)c1ccc(-c2cc(C(=O)c3c(Cl)cccc3Cl)n3cccc(C(F)(F)F)c23)cc1 [Example A-61, 4-[3-(2,6-dichlorobenzoyl)-8-(trifluoromethyl)indolizin-1-yl]benzoic acid]
< 0.5	ethyl 4-[3-(2-bromo-6-methyl-benzoyl)indolizin-1-yl]benzoate [Example A-66]
< 0.5	O=C(O)c1ccc(-c2cc(C(=O)c3c(Cl)cccc3Cl)n3cccc(F)c23)cc1 [Example A-23, 4-[3-(2,6-dichlorobenzoyl)-8-fluoro-indolizin-1-yl]benzoic acid]
< 0.5	O=C(O)c1ccc(-c2cc(C(=O)c3c(F)cccc3F)n3cccc(F)c23)c(F)c1 [Example A-48, 4-[3-(2,6-difluorobenzoyl)-8-fluoro-indolizin-1-yl]-3-fluoro-benzoic acid]
< 0.5	O=C(O)c1cc(F)c(-c2cc(C(=O)c3c(Cl)cccc3Cl)n3ccccc23)c(F)c1 [Example A-9, 4-[3-(2,6-dichlorobenzoyl)indolizin-1-yl]-3,5-difluoro-benzoic acid]
< 0.5	O=C(O)c1ccc(-c2cc(C(=O)c3c(Cl)cccc3Cl)n3ccccc23)cc1 [Example A-8, 4-[3-(2,6-dichlorobenzoyl)indolizin-1-yl]benzoic acid]
< 0.5	COC(=O)c1ccc(-c2cc(C(=O)c3c(Cl)cccc3Cl)n3cccc(F)c23)c(F)c1 [Example A-22, methyl 4-[3-(2,6-dichlorobenzoyl)-8-fluoro-indolizin-1-yl]-3-fluoro-benzoate]
< 0.5	COC(=O)c1ccc(-c2cc(Oc3c(Cl)cccc3Cl)n3ccccc23)c(F)c1 [Example E-1, methyl 4-[3-(2,6-dichlorophenoxy)indolizin-1-yl]-3-fluoro-benzoate]
< 0.5	COC(=O)c1ccc(-c2c(F)c(C(=O)c3c(Cl)cccc3Cl)n3ccccc23)c(F)c1 [Example B-3, methyl 4-[3-(2,6-dichlorobenzoyl)-2-fluoro-indolizin-1-yl]-3-fluoro-benzoate]
< 0.5	O=C(O)c1ccc(-c2cc(C(=O)c3c(F)cccc3Cl)n3ccccc23)c(F)c1 [Example A-27, 4-[3-(2-chloro-6-fluoro-benzoyl)indolizin-1-yl]-3-fluoro-benzoic acid]

Compound	IC50 [µM]
4-[3-(2-chloro-6-methyl-benzoyl)-5,6,7,8-tetrahydroindolizin-1-yl]benzoic acid [Example H-5]	< 0.5
4-[3-(2,6-dichlorophenoxy)indolizin-1-yl]benzoic acid [Example E-3]	> 5
4-[3-(2,6-difluorobenzoyl)indolizin-1-yl]benzoic acid [Example A-37]	< 0.5
4-[3-(2,6-dichloro-3-fluoro-benzoyl)-5,6,7,8-tetrahydroindolizin-1-yl]benzoic acid [Example H-3]	> 5
4-[3-(2,6-dichlorobenzoyl)-6-(methylcarbamoyl)indolizin-1-yl]benzoic acid [Example D-9]	< 5
4-[6-carbamoyl-3-(2,6-dichlorobenzoyl)indolizin-1-yl]benzoic acid [Example D-13]	< 5
